Data set [1] in a line: Cytotoxicity, XTT viability assay, HT-29. As to conditions: human, HT-29 cells, CC50 HT-29, 48 h, XTT. How it is done: (§1) The cytotoxicity assay was performed to evaluate the effect of the selected compounds on human cells. Colon cells were used because they are cell lines like those present in the microenvironment where G. lamblia colonizes, which is the small intestine of the host. The assay was performed using the human cell lines Caco-2 (ATCC HTB-37) and HT-29 (ATCC […]). Cell viability was determined using the Cell Proliferation Kit II (XTT, St. Louis, MO, EE. UU.). A cell suspension of 2 × 10^3 cells/mL was prepared in Dulbecco’s modified Eagle’s medium (DMEM) supplemented with 10% inactivated fetal bovine serum and an antibiotic (1% penicillin/streptomycin, 5000 U/mL, in a volume of 100 µL). The suspension was added to a 96-well plate. The plates were incubated for 24 h at 37 °C in a 5% CO2 atmosphere. […] The cells were incubated for 48 h at 37 °C in a 5% CO2 atmosphere. Cell viability was determined using the following steps. The medium in each well was replaced with 100 µL of fresh medium, and 50 µL of XTT labeling mix was added per well. The reaction was incubated for four hours at 37 °C and 5% CO2. After incubation, the absorbance of the samples on the plate was measured at 450 nm. Each compound was assayed in triplicate in three independent experiments. CC50 values (μM) were determined using the nonlinear regression function of GraphPad Prism version 8 for Windows.
A general note: Tetrazolium dyes change colour on reduction, which living cells bring about.

Data set [2] has as its system HT-29 cells. The data set is described as follows: Cytotoxicity, XTT viability assay, HT-29. The settings on record: CC50 HT-29 / IC50 trophozoite ATCC strain 30957. How it is done: as §1
Data set [3] is described as follows: Cytotoxicity, XTT viability assay, Caco-2. The settings on record: human. How it is done: as §1
The subject of data set [4] is G. lamblia trophozoites. The experiment in a line: Cell damage by transmission electron microscopy. In kind it is cell-based, Giardia lamblia. The settings on record: IC50 concentration, 24 h. How it is done:
The trophozoites were incubated for 24 h at 37 °C and then collected by cooling them in an ice bath for 10 min and centrifuging at 2000 rpm for 7 min. The samples were sent for preparation and observation at the Instituto de Fisiología Celular, UNAM. The analysis was performed using a JEOL-JEM-1200 transmission electron microscope (JEOL LTD, Tokyo, Japan) equipped with a GATAN CCD camera at the Imaging Unit of the Institute of Cellular Physiology, UNAM.

The results in this text go back to PMC12111156, “Nitazoxanide Analogs: Synthesis, In Vitro Giardicidal Activity, and Effects on Giardia lamblia Metabolic Gene Expression” (International Journal of Molecular Sciences, 2025).

For orientation: CC50 means the concentration giving 50% cytotoxicity. Read a high CC50 as lower toxicity to the cells.

Regarding `CCCCC(=O)Nc1ncc([N+](=O)[O-])s1` [FLP-2, N-(5-Nitro-1,3-thiazol-2-yl)pentanamide], the CC50 at 48 h in data set [1] amounted to 1910 µM; in data set [3] (Caco-2, CC50 Caco-2, 48 h, XTT) it was 3180 µM. In addition, the “Selectivity index (CC50/IC50) HT-29” value in data set [2] is listed as 531. In addition, the selectivity ratio at 48 h in data set [3] (Caco-2) came out at 884. Moreover, the “Ultrastructural effect on trophozoites (TEM)” value in data set [4] is given as “significant morphological alterations”.
